Source: patent US7855182B2, “Materials and methods for treatment of cancer” (The Institute of Cancer Research; Royal Cancer Hospital, priority 2004, dated 2010)

Key:
GPC5 = GPC5 expression in PC3M tumours grown as subcutaneous implants in treated mice; type: in vivo, athymic nude mice; settings: preliminary
Protocol: (§1) To measure the amount of mature mRNA copies of GPC5 and GPC6 the probe was designed across the exon 1-exon 2 boundary and the exon 7-exon 8 boundary respectively. Applied Biosystems' Predeveloped GAPDH (Glyceraldehyde 3-phosphate dehydrogenase) was used as an endogenous control. 25 μL multiplex PCR reactions were run using 2× Universal TaqMan® Master Mix (Applied Biosystems Pt No. 4304437), the concentration of primers and probes shown in Table 1 and 10 ng of DNA or cDNA. These samples were run in triplicate under standard operating conditions on an ABI7700 SDS TaqMan® Machine (Applied Biosystems, CA). […] Thus, the amount of GPC5 and GPC6 was measured relative to either normal genomic DNA in the case of genomic measurements and to normal muscle in the case of expression measurements. Normal genomic DNA was extracted from the blood of a healthy donor, normal muscle cDNA was produced from RNA extracted from a pool of 11 normal muscle biopsies.
Previous gene profiling studies following treatment of K562 cells with WT1 directed ASOs, identified GPC5 as a putative WT1 target gene (manuscript in preparation). Downregulation of GPC5 expression following WT1 antisense treatment and correlating with reduced WT1 expression was confirmed in independent experiments (see FIG. 6). […]

WT1 = WT1 expression in PC3M tumours grown as subcutaneous implants in treated mice; type: in vivo, athymic nude mice; settings: PC3M prostate cancer subcutaneous implants, mice treated with WT1 antisense; preliminary, data not shown
Protocol: The primer pair and probe for the quantification of WT1 were designed using the Primer Express program (Applied Biosystems) according to the recommended guidelines and as described above.: WT1—Forward primer, 5′-[…]-3′, reverse primer, 5′, […]-3′, and probe, 5′-[…]-3′. Each assay sample was analyzed in triplicate as above, and multiplexed to facilitate the measurement of gene expression levels relative to GAPDH (in vivo tumour samples) or 18 s ribosomal RNA expression (ribosomal RNA control reagents, Applied Biosystems) (in vitro cell line samples) using the standard curve method.
Previous gene profiling studies following treatment of K562 cells with WT1 directed ASOs, identified GPC5 as a putative WT1 target gene (manuscript in preparation). Downregulation of GPC5 expression following WT1 antisense treatment and correlating with reduced WT1 expression was confirmed in independent experiments (see FIG. 6). […] Direct transcriptional regulation of GPC5 by WT1 is likely since GPC5 has two WT1 consensus binding sites in its promoter region.

HL-60 = assay: Clonogenic cell survival assay in soft agar, HL-60 control leukaemic cell line not expressing GPC5; type: cell-based; settings: HL-60 cells, compared to sham-treated
Protocol: In this assay, cells are grown at low density in suspension in soft agar following treatment. Each colony formed derives from a single surviving cell. 2 ml aliquots of diluted cells were added to polystyrene tubes (Elkay Products (UK) Ltd., Basingstoke, Hampshire, UK) containing 3 ml of medium supplemented with 20% FCS and 0.2% Agar Noble (DIFCO Laboratories, Detroit, Mich.), incubated at 37° C., and colonies containing at least 32 cells counted after 14 days. The number of colonies formed following drug treatment were compared to the number obtained following sham electroporation or a control scrambled oligonucleotide and expressed as % control treatment. In a number of separate experiments, control plating efficiencies ranged from 22-38%, with 800-1600 cells typically plated. In addition, cells from the dilution series (approx 10^3-10^4 cells/ml) were allowed to grow up in suspension culture in parallel for 3-5 days in order to confirm cytotoxicity.
Two active compounds, ISIS 276107 and ISIS 276119, were identified in this primary screen, reducing GPC5 levels to less than 30% control levels and reducing cell survival by greater than 80% (FIG. 3A). […] FIGS. 3B and C show the effects of ISIS 276107 and a control compound (ISIS 276124) at varying concentrations in the same assay.

GPC5 mRNA = GPC5 mRNA quantification (TaqMan) after electroporation of antisense oligonucleotides into K562 cells; type: cell-based, human
Protocol: as §1, with “biopsies. […]” for “biopsies.”

K562 cells = assay: Clonogenic cell survival assay in soft agar, K562 cells; type: cell-based, human
Protocol: Antisense or control oligonucleotides were dissolved in PBS and introduced into K562 cells by low voltage electroporation: 40 μl of appropriately diluted ASOs were combined with 360 μl of cell suspension at 2×10^7 cells/ml and cells were electroporated (Bio-Rad Gene Pulser® II Electroporation system with Pulse Controller Plus capacitance extender accessory module, Bio-Rad Laboratories Ltd, Hemel Hempstead, Herts, UK) using 300V and a capacitor value of 1000 μF, and diluted to 10 ml with complete medium. From each sample appropriate duplicate aliquots of cells were serially diluted in complete medium for assessment of cytotoxicity while the remaining cells were incubated at 37° C. for 24 hours ana RNA extracted for quantification of GPC5 and/or WT1 expression levels.
In this assay, cells are grown at low density in suspension in soft agar following treatment. […] 2 ml aliquots of diluted cells were added to polystyrene tubes (Elkay Products (UK) Ltd., Basingstoke, Hampshire, UK) containing 3 ml of medium supplemented with 20% FCS and 0.2% Agar Noble (DIFCO Laboratories, Detroit, Mich.), incubated at 37° C., and colonies containing at least 32 cells counted after 14 days. The number of colonies formed following drug treatment were compared to the number obtained following sham electroporation or a control scrambled oligonucleotide and expressed as % control treatment. […]

CC(=O)O[C@@]12CO[C@@H]1C[C@H](O)[C@@]1(C)C(=O)[C@H](O)C3=C(C)[C@@H](OC(=O)[C@H](O)[C@@H](NC(=O)OC(C)(C)C)c4ccccc4)C[C@@](O)([C@@H](OC(=O)c4ccccc4)[C@H]21)C3(C)C [docetaxol]
increase in GPC5 expression (GPC5; PC3M tumours, mice treated with 15 mg/kg): 5 fold

ASWT1exon5: WT1 antisense oligonucleotide targeting WT1 exon 5, GCCCCTTCTGTCCATTTCACT (SEQ ID NO: 26)
decrease in WT1 expression levels (WT1): 50%
reduction in GPC5 expression (GPC5; PC3M prostate cancer subcutaneous implants, mice treated with WT1 antisense, data not shown): 30%

ISIS 276107: 20 mer 2'-MOE chimeric phosphorothioate GPC5 antisense oligonucleotide, CAGCCCCCTGACAGCTCCCA (SEQ ID NO: 23) (all phosphorothioate, sugars by position and methylation of C not given here; 2'-MOE wings flank eight-deoxy central gap)
colony number following treatment (HL-60): no decrease

ISIS 276124: control oligonucleotide, TGGATTTGCTTTACACATCACT (SEQ ID NO: 25)
effect on GPC5 expression / GPC5 levels (GPC5 mRNA): not to affect
effect on cell viability / cell survival (K562 cells): not to affect
colony number following treatment (HL-60): no decrease
